{"source": "paper PMC4062305", "about": "(Journal of medicinal chemistry, 2013)", "target": "T1, FAAH activity in brain (Mus musculus, UniProt O08914)", "T1 sequence (O08914 1-579)": "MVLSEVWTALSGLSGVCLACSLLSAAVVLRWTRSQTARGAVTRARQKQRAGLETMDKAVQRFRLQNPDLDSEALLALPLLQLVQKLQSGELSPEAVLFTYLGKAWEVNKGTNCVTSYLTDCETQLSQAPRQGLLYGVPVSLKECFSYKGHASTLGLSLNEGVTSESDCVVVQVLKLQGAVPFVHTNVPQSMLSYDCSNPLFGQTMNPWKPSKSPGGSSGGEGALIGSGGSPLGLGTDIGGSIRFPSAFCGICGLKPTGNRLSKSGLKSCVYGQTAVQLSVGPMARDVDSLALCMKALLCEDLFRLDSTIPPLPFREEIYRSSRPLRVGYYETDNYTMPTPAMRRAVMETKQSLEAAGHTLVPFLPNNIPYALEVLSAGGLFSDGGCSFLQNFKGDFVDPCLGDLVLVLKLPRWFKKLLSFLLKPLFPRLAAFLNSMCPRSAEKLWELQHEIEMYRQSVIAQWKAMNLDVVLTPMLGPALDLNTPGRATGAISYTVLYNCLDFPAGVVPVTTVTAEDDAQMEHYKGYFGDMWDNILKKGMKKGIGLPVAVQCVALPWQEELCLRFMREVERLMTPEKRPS", "test": "Ex vivo FAAH inhibition in brain after systemic administration", "design": "species or system Swiss Webster mice", "details": "s.c. doses up to 40 or 75 mg/kg, 1 h after injection", "note": "“Also recorded” adds a separate entry of the source."}
{"smiles": "CC(=O)Nc1cccc(-c2cc(OC(=O)NC3CCCCC3)ccc2O)c1", "note": "[7c, Cyclohexylcarbamic Acid 3’-Acetamido-6-hydroxybiphenyl-3-yl Ester]", "values": [{"measurement": "Access to the brain in dose-exploration study (brain FAAH inhibition)", "result": "significantly higher brain penetration relative to 3, 7d and 7e at all doses tested"}]}
{"smiles": "NC(=O)c1cccc(-c2cc(OC(=O)NC3CCCCC3)ccc2C(=O)O)c1", "note": "[compound 29, Cyclohexylcarbamic Acid 3’-Carbamoyl-6-carboxybiphenyl-3-yl Ester]", "values": [{"measurement": "Access to the brain in dose-exploration study (brain FAAH inhibition)", "result": "failed to enter the brain even at the highest dose tested; also recorded: did not enter the brain, even at the highest dosage tested"}]}
{"smiles": "N.NC(=O)c1cccc(-c2cc(OC(=O)NC3CCCCC3)ccc2OS(=O)(=O)O)c1", "note": "[compound 30, Ammonium Cyclohexylcarbamic Acid 3’-Carbamoyl-6-sulfatebiphenyl-3-yl Ester]", "values": [{"measurement": "Access to the brain in dose-exploration study (brain FAAH inhibition)", "result": "did not enter the brain, even at the highest dosage tested"}]}
